Assay results published in the supplement of paper PMC10307832.

Experiments:
Assay in all cases: relative viability (nuclei count vs DMSO), 5 days (fraction); higher = more cells survive
[1] = test system: ABC-1
Method in brief: (§1)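 One day after seeding in 1536-well plates, lung cancer cell lines were dosed by pin tool. Dosing was either single-drug or a fixed anchor-drug dose plus five library-drug doses (not always all listed) in √10 steps. After 5 days, nuclei were stained in one fix-and-stain step and counted on 4× images, and relative viability is the nuclei count of treated wells over that of vehicle wells, given as the median of duplicate plates.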

[2] = test system: CAL-12T
Method in brief: as §1

[3] = test system: COR-L23
Method in brief: as §1

[4] = test system: EMC-BAC-2
Method in brief: as §1

[5] = test system: HARA
Method in brief: as §1

[6] = test system: HCC-366
Method in brief: as §1

[7] = test system: HOP-62
Method in brief: as §1

[8] = test system: LK-2
Method in brief: as §1

[9] = test system: NCI-H1437
Method in brief: as §1

[10] = test system: NCI-H1563
Method in brief: as §1

[11] = test system: NCI-H1650
Method in brief: as §1

[12] = test system: NCI-H1651
Method in brief: as §1

[13] = test system: NCI-H1734
Method in brief: as §1

[14] = test system: NCI-H1755
Method in brief: as §1

[15] = test system: NCI-H2347
Method in brief: as §1

[16] = test system: NCI-H3122
Method in brief: as §1

[17] = test system: NCI-H441
Method in brief: as §1

[18] = test system: NCI-H596
Method in brief: as §1

[19] = test system: NCI-H727
Method in brief: as §1

[20] = test system: PC-3 [JPC-3]
Method in brief: as §1

[21] = test system: RERF-LC-KJ
Method in brief: as §1

[22] = test system: SK-LU-1
Method in brief: as §1

[23] = test system: UMC-11
Method in brief: as §1

Cc1csc(=NC2CCCCC2)n1/N=C/c1ccc(O)c(O)c1O [MIM1] + Cc1nc(Nc2ncc(C(=O)Nc3c(C)cccc3Cl)s2)cc(N2CCN(CCO)CC2)n1 [Dasatinib] (partner 0.075 µM)
relative viability ([1]; first compound 0.2 µM): 0.598
relative viability ([1]; first compound 0.6325 µM): 0.555
relative viability ([1]; first compound 2 µM): 0.543
relative viability ([1]; first compound 6.325 µM): 0.299
relative viability ([1]; first compound 20 µM): 0.248
relative viability ([2]; first compound 0.2 µM): 0.258
relative viability ([2]; first compound 0.6325 µM): 0.38
relative viability ([2]; first compound 2 µM): 0.215
relative viability ([2]; first compound 6.325 µM): 0.311
relative viability ([2]; first compound 20 µM): 0.115
relative viability ([3]; first compound 0.2 µM): 0.449
relative viability ([3]; first compound 0.6325 µM): 0.552
relative viability ([3]; first compound 2 µM): 0.464
relative viability ([3]; first compound 6.325 µM): 0.327
relative viability ([3]; first compound 20 µM): 0.335
relative viability ([4]; first compound 0.2 µM): 0.218
relative viability ([4]; first compound 0.6325 µM): 0.302
relative viability ([4]; first compound 2 µM): 0.317
relative viability ([4]; first compound 6.325 µM): 0.31
relative viability ([4]; first compound 20 µM): 0.179
relative viability ([5]; first compound 0.2 µM): 0.216
relative viability ([5]; first compound 2 µM): 0.228
relative viability ([5]; first compound 6.325 µM): 0.24
relative viability ([5]; first compound 20 µM): 0.181
relative viability ([6]; first compound 0.2 µM): 0.622
relative viability ([6]; first compound 2 µM): 0.65
relative viability ([6]; first compound 6.325 µM): 0.388
relative viability ([6]; first compound 20 µM): 0.0615
relative viability ([7]; first compound 0.2 µM): 0.579
relative viability ([7]; first compound 0.6325 µM): 0.696
relative viability ([7]; first compound 2 µM): 0.677
relative viability ([7]; first compound 6.325 µM): 0.629
relative viability ([7]; first compound 20 µM): 0.16
relative viability ([8]; first compound 0.2 µM): 0.358
relative viability ([8]; first compound 2 µM): 0.202
relative viability ([8]; first compound 6.325 µM): 0.269
relative viability ([8]; first compound 20 µM): 0.176
relative viability ([9]; first compound 0.2 µM): 0.456
relative viability ([9]; first compound 0.6325 µM): 0.406
relative viability ([9]; first compound 2 µM): 0.55
relative viability ([9]; first compound 6.325 µM): 0.285
relative viability ([9]; first compound 20 µM): 0.151
relative viability ([10]; first compound 0.2 µM): 0.538
relative viability ([10]; first compound 0.6325 µM): 0.508
relative viability ([10]; first compound 2 µM): 0.43
relative viability ([10]; first compound 6.325 µM): 0.524
relative viability ([10]; first compound 20 µM): 0.488
relative viability ([11]; first compound 0.2 µM): 0.304
relative viability ([11]; first compound 0.6325 µM): 0.316
relative viability ([11]; first compound 2 µM): 0.24
relative viability ([11]; first compound 6.325 µM): 0.186
relative viability ([11]; first compound 20 µM): 0.159
relative viability ([12]; first compound 0.2 µM): 0.509
relative viability ([12]; first compound 0.6325 µM): 0.464
relative viability ([12]; first compound 2 µM): 0.458
relative viability ([12]; first compound 6.325 µM): 0.282
relative viability ([12]; first compound 20 µM): 0.182
relative viability ([13]; first compound 0.2 µM): 0.453
relative viability ([13]; first compound 0.6325 µM): 0.446
relative viability ([13]; first compound 2 µM): 0.487
relative viability ([13]; first compound 6.325 µM): 0.386
relative viability ([13]; first compound 20 µM): 0.161
relative viability ([14]; first compound 0.2 µM): 0.467
relative viability ([14]; first compound 0.6325 µM): 0.442
relative viability ([14]; first compound 2 µM): 0.424
relative viability ([14]; first compound 6.325 µM): 0.391
relative viability ([14]; first compound 20 µM): 0.23
relative viability ([15]; first compound 0.2 µM): 0.298
relative viability ([15]; first compound 0.6325 µM): 0.284
relative viability ([15]; first compound 2 µM): 0.291
relative viability ([15]; first compound 6.325 µM): 0.339
relative viability ([15]; first compound 20 µM): 0.26
relative viability ([16]; first compound 0.2 µM): 0.779
relative viability ([16]; first compound 0.6325 µM): 0.717
relative viability ([16]; first compound 2 µM): 0.882
relative viability ([16]; first compound 6.325 µM): 0.325
relative viability ([16]; first compound 20 µM): 0.122
relative viability ([17]; first compound 0.2 µM): 0.522
relative viability ([17]; first compound 2 µM): 0.631
relative viability ([17]; first compound 6.325 µM): 0.481
relative viability ([17]; first compound 20 µM): 0.262
relative viability ([18]; first compound 0.2 µM): 0.646
relative viability ([18]; first compound 0.6325 µM): 0.651
relative viability ([18]; first compound 2 µM): 0.546
relative viability ([18]; first compound 6.325 µM): 0.61
relative viability ([18]; first compound 20 µM): 0.597
relative viability ([19]; first compound 0.2 µM): 0.383
relative viability ([19]; first compound 0.6325 µM): 0.36
relative viability ([19]; first compound 2 µM): 0.276
relative viability ([19]; first compound 6.325 µM): 0.356
relative viability ([19]; first compound 20 µM): 0.267
relative viability ([20]; first compound 0.2 µM): 1.03
relative viability ([20]; first compound 0.6325 µM): 0.976
relative viability ([20]; first compound 2 µM): 0.981
relative viability ([20]; first compound 6.325 µM): 0.904
relative viability ([20]; first compound 20 µM): 0.582
relative viability ([21]; first compound 0.2 µM): 0.632
relative viability ([21]; first compound 0.6325 µM): 0.748
relative viability ([21]; first compound 2 µM): 0.551
relative viability ([21]; first compound 6.325 µM): 0.361
relative viability ([21]; first compound 20 µM): 0.228
relative viability ([22]; first compound 0.2 µM): 0.155
relative viability ([22]; first compound 0.6325 µM): 0.19
relative viability ([22]; first compound 2 µM): 0.189
relative viability ([22]; first compound 6.325 µM): 0.166
relative viability ([22]; first compound 20 µM): 0.235
relative viability ([23]; first compound 0.2 µM): 0.474
relative viability ([23]; first compound 2 µM): 0.532
relative viability ([23]; first compound 6.325 µM): 0.402
relative viability ([23]; first compound 20 µM): 0.235
